Test results taken from US10376520B2, “Methods for the treatment of cardiovascular disorders” (Galapagos NV, priority 2015, dated 2019).

Test system: RA patients
Assay: Total cholesterol determination, Study 1 (RA patients with inadequate response to methotrexate, add-on to MTX)
Type: in vivo, human
Experimental: Double-blind, placebo-controlled add on study in subjects with moderately to severely active RA who have an inadequate response to methotrexate (MTX) (oral or parenteral).
595 subjects randomized to one of 6 dose regimens of Compound 1 (dosed as a [Compound 1:HCl:3H2O]) (3 dose levels administered either once or twice daily) or placebo on top of each subject's stable dose of MTX.
Compound 1 (dosed as a [Compound 1:HCl:3H2O]) is dosed for twelve weeks once daily (q.d.) (50 mg, 100 mg or 200 mg) or twice daily (b.i.d.) (25 mg, 50 mg or 100 mg); or placebo.
At Week 12, the subjects on placebo who have not achieved 20% improvement in swollen joint count (SJC66) and tender joint count (TJC68) are re-randomized automatically to receive Compound 1 (dosed as a [Compound 1:HCl:3H2O]) either at 100 mg q.d. or 50 mg b.i.d. doses in a blinded fashion; subjects on 50 mg q.d. who have not achieved 20% improvement in SJC66 and TJC68 will be assigned to 100 mg q.d. and subjects on 25 mg b.i.d. that have not achieved a 20% improvement in SJC66 and TJC68 will be assigned to 50 mg b.i.d. Subjects who switch treatment at week 12 are handled as if they discontinued at week 12 for the purpose of statistical analysis, whereas subjects in the other groups will maintain their randomized treatment until Week 24.
This method is based on the determination of Δ^4 cholestenone after enzymatic cleavage of the cholesterol ester by cholesterol esterase, conversion of cholesterol by cholesterol oxidase, and subsequent measurement by the Trinder reaction of the hydrogen peroxide formed (Allain et al., 1974).
Cholesterol esters are cleaved by the action of cholesterol esterase to yield free cholesterol and fatty acids. Cholesterol oxidase then catalyzes the oxidation of cholesterol to cholest-4-en-3-one and hydrogen peroxide. In the presence of peroxidase, the hydrogen peroxide formed effects the oxidative coupling of phenol and 4-aminophenazone to form a red quinone-imine dye. The color intensity of the dye formed is directly proportional to the cholesterol concentration. It is determined by measuring the increase in absorbance.
Human serum and plasma samples cholesterol determination was done on a Roche/Hitachi Cobas c 701/702 system which automatically calculate the analyte concentration of each sample.

[1] = Study 1 12 weeks results, 2 x 25 mg b.i.d., week 2
[2] = Study 1 12 weeks results, 2 x 25 mg b.i.d., week 4
[3] = Study 1 12 weeks results, 2 x 25 mg b.i.d., week 8
[4] = Study 1 12 weeks results, 2 x 25 mg b.i.d., week 12
[5] = Study 1 12 weeks results, 2 x 50 mg b.i.d., week 1
[6] = Study 1 12 weeks results, 2 x 50 mg b.i.d., week 2
[7] = Study 1 12 weeks results, 2 x 50 mg b.i.d., week 4
[8] = Study 1 12 weeks results, 2 x 50 mg b.i.d., week 8
[9] = Study 1 12 weeks results, 2 x 50 mg b.i.d., week 12
[10] = Study 1 12 weeks results, 2 x 100 mg b.i.d., week 1
[11] = Study 1 12 weeks results, 2 x 100 mg b.i.d., week 2
[12] = Study 1 12 weeks results, 2 x 100 mg b.i.d., week 4
[13] = Study 1 12 weeks results, 2 x 100 mg b.i.d., week 8
[14] = Study 1 12 weeks results, 2 x 100 mg b.i.d., week 12
[15] = Study 1 24 weeks results, continued 50 mg q.d., week 1
[16] = Study 1 24 weeks results, continued 50 mg q.d., week 2
[17] = Study 1 24 weeks results, continued 50 mg q.d., week 4
[18] = Study 1 24 weeks results, continued 50 mg q.d., week 8
[19] = Study 1 24 weeks results, continued 50 mg q.d., week 12
[20] = Study 1 24 weeks results, continued 50 mg q.d., week 16
[21] = Study 1 24 weeks results, continued 50 mg q.d., week 20
[22] = Study 1 24 weeks results, continued 50 mg q.d., week 24

O=C(Nc1nc2cccc(-c3ccc(CN4CCS(=O)(=O)CC4)cc3)n2n1)C1CC1 [Compound 1, cyclopropanecarboxylic acid {5-[4-(1,1-dioxo-thiomorpholin-4-ylmethyl)-phenyl]-[1,2,4]triazolo[1,5-a]pyridin-2yl}-amide]
[total cholesterol] Mean CFB (Study 1 12 weeks results, 2 x 25 mg b.i.d., week 1): 0.1 mmol/L | [Total cholesterol] Median CFB [1]: 0.10 mmol/L | [total cholesterol] Mean CFB [1]: 0.1 mmol/L | [Total cholesterol] Median CFB [2]: 0.05 mmol/L | [total cholesterol] Mean CFB [2]: 0.1 mmol/L | [Total cholesterol] Median CFB [3]: 0.05 mmol/L | [total cholesterol] Mean CFB [3]: 0.1 mmol/L | [Total cholesterol] Median CFB [4]: 0.13 mmol/L | [total cholesterol] Mean CFB [4]: 0.2 mmol/L | [Total cholesterol] Median CFB [5]: 0.21 mmol/L | [total cholesterol] Mean CFB [5]: 0.1 mmol/L | [Total cholesterol] Median CFB [6]: 0.18 mmol/L | [total cholesterol] Mean CFB [6]: 0.1 mmol/L | [Total cholesterol] Median CFB [7]: 0.28 mmol/L | [total cholesterol] Mean CFB [7]: 0.3 mmol/L | [Total cholesterol] Median CFB [8]: 0.22 mmol/L | [total cholesterol] Mean CFB [8]: 0.2 mmol/L | [Total cholesterol] Median CFB [9]: 0.23 mmol/L | [total cholesterol] Mean CFB [9]: 0.2 mmol/L | [Total cholesterol] Median CFB [10]: 0.28 mmol/L | [total cholesterol] Mean CFB [10]: 0.3 mmol/L | [Total cholesterol] Median CFB [11]: 0.31 mmol/L | [total cholesterol] Mean CFB [11]: 0.4 mmol/L | [Total cholesterol] Median CFB [12]: 0.45 mmol/L | [total cholesterol] Mean CFB [12]: 0.4 mmol/L | [Total cholesterol] Median CFB [13]: 0.55 mmol/L | [total cholesterol] Mean CFB [13]: 0.6 mmol/L | [Total cholesterol] Median CFB [14]: 0.80 mmol/L | [total cholesterol] Mean CFB [14]: 0.6 mmol/L | [total cholesterol] Mean CFB (Study 1 24 weeks results, continued 25 mg b.i.d, week 1): 0.11 mmol/L | [total cholesterol] Mean CFB (Study 1 24 weeks results, continued 25 mg b.i.d, week 2): 0.12 mmol/L | [total cholesterol] Mean CFB (Study 1 24 weeks results, continued 25 mg b.i.d, week 4): 0.14 mmol/L | [total cholesterol] Mean CFB (Study 1 24 weeks results, continued 25 mg b.i.d, week 8): 0.15 mmol/L | [total cholesterol] Mean CFB (Study 1 24 weeks results, continued 25 mg b.i.d, week 12): 0.26 mmol/L | [total cholesterol] Mean CFB (Study 1 24 weeks results, continued 25 mg b.i.d, week 16): 0.20 mmol/L | [total cholesterol] Mean CFB (Study 1 24 weeks results, continued 25 mg b.i.d, week 20): 0.27 mmol/L | [total cholesterol] Mean CFB (Study 1 24 weeks results, continued 25 mg b.i.d, week 24): 0.24 mmol/L | [total cholesterol] Mean CFB (Study 1 24 weeks results, continued 50 mg b.i.d., week 1): 0.15 mmol/L | [total cholesterol] Mean CFB (Study 1 24 weeks results, continued 50 mg b.i.d., week 2): 0.14 mmol/L | [total cholesterol] Mean CFB (Study 1 24 weeks results, continued 50 mg b.i.d., week 4): 0.28 mmol/L | [total cholesterol] Mean CFB (Study 1 24 weeks results, continued 50 mg b.i.d., week 8): 0.21 mmol/L | [total cholesterol] Mean CFB (Study 1 24 weeks results, continued 50 mg b.i.d., week 12): 0.23 mmol/L | [total cholesterol] Mean CFB (Study 1 24 weeks results, continued 50 mg b.i.d., week 16): 0.24 mmol/L | [total cholesterol] Mean CFB (Study 1 24 weeks results, continued 50 mg b.i.d., week 20): 0.32 mmol/L | [total cholesterol] Mean CFB (Study 1 24 weeks results, continued 50 mg b.i.d., week 24): 0.34 mmol/L | [Total cholesterol] Median CFB [15]: 0.00 mmol/L | [total cholesterol] Mean CFB [15]: 0.03 mmol/L | [Total cholesterol] Median CFB [16]: 0.00 mmol/L | [total cholesterol] Mean CFB [16]: -0.01 mmol/L | [Total cholesterol] Median CFB [17]: 0.05 mmol/L | [total cholesterol] Mean CFB [17]: 0.05 mmol/L | [Total cholesterol] Median CFB [18]: 0.20 mmol/L | [total cholesterol] Mean CFB [18]: 0.14 mmol/L | [Total cholesterol] Median CFB [19]: 0.25 mmol/L | [total cholesterol] Mean CFB [19]: 0.24 mmol/L | [Total cholesterol] Median CFB [20]: 0.25 mmol/L | [total cholesterol] Mean CFB [20]: 0.21 mmol/L | [Total cholesterol] Median CFB [21]: 0.25 mmol/L | [total cholesterol] Mean CFB [21]: 0.20 mmol/L | [Total cholesterol] Median CFB [22]: 0.30 mmol/L | [total cholesterol] Mean CFB [22]: 0.28 mmol/L | [total cholesterol] Mean CFB (Study 1 24 weeks results, continued 100 mg b.i.d., week 1): 0.30 mmol/L
